The results in this text go back to PubChem BioAssay AID270 (DTP/NCI, 2004).

The test concerns BDF1 mice, s.c. Lewis lung carcinoma, T/C %. Briefly: NCI In Vivo Anticancer Drug Screen. Data for tumor model Lewis Lung Carcinoma (subcutaneous) in B6D2F1 (BDF1) mice. In outline: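 The value reflects a ratio in which the treated cohort's survival time or tumour size is compared against mice receiving only vehicle.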
Setting [1] is: endpoint: median survival time, dose: 50.0 mg/kg/injection, schedule: Q01DX009 (ip), vehicle: Klucel (hydroxypropylcellulose) (HPC), higher = longer survival.
Where [2] appears, read: endpoint: median survival time, dose: 100.0 mg/kg/injection, schedule: Q01DX009 (ip), vehicle: Klucel (hydroxypropylcellulose) (HPC), higher = longer survival.
The mark [3] stands for this setting: endpoint: median survival time, dose: 25.0 mg/kg/injection, schedule: Q01DX009 (ip), vehicle: Klucel (hydroxypropylcellulose) (HPC), higher = longer survival.
[4] abbreviates: endpoint: median survival time, dose: 3.12 mg/kg/injection, schedule: Q01DX009 (ip), vehicle: Klucel (hydroxypropylcellulose) (HPC), higher = longer survival.
[5] abbreviates: endpoint: median survival time, dose: 6.25 mg/kg/injection, schedule: Q01DX009 (ip), vehicle: Klucel (hydroxypropylcellulose) (HPC), higher = longer survival.
The mark [6] stands for this setting: endpoint: median survival time, dose: 12.5 mg/kg/injection, schedule: Q01DX009 (ip), vehicle: Klucel (hydroxypropylcellulose) (HPC), higher = longer survival.

The structures appear in SMILES notation. “And” between values parts separate entries of the source, which are not always exact repeats. Identical values can stand only once. Records with an inconclusive call do not appear.

For the molecule `O=NN(CCCl)C(=O)NC1CCC(C(=O)O)CC1` (centres undefined), the T/C by setting is: (endpoint: median survival time, dose: 3.0 mg/kg/injection, schedule: Q01DX001 (ip), vehicle: saline with Tween-80, higher = longer survival) 97 % of control and 117 % of control; (endpoint: median survival time, dose: 5.0 mg/kg/injection, schedule: Q01DX001 (ip), vehicle: saline with Tween-80, higher = longer survival) 116 % of control; (endpoint: median survival time, dose: 7.0 mg/kg/injection, schedule: Q01DX001 (ip), vehicle: saline with Tween-80, higher = longer survival) 110 % of control; (endpoint: median survival time, dose: 8.0 mg/kg/injection, schedule: Q01DX001 (ip), vehicle: saline with Tween-80, higher = longer survival) 124 % of control; (endpoint: median survival time, dose: 11.0 mg/kg/injection, schedule: Q01DX001 (ip), vehicle: saline with Tween-80, higher = longer survival) 113 % of control; (endpoint: median survival time, dose: 12.0 mg/kg/injection, schedule: Q01DX001 (ip), vehicle: saline with Tween-80, higher = longer survival) 121 % of control. Besides, the T/C was 111 % of control and 288 % of control and 180 % of control (endpoint: median survival time, dose: 13.0 mg/kg/injection, schedule: Q01DX001 (ip), vehicle: saline with Tween-80, higher = longer survival); 121 % of control (endpoint: median survival time, dose: 17.0 mg/kg/injection, schedule: Q01DX001 (ip), vehicle: saline with Tween-80, higher = longer survival); 206 % of control [middle of 5 runs] (endpoint: median survival time, dose: 20.0 mg/kg/injection, schedule: Q01DX001 (ip), vehicle: saline with Tween-80, higher = longer survival); 109 % of control (endpoint: median survival time, dose: 26.0 mg/kg/injection, schedule: Q01DX001 (ip), vehicle: saline with Tween-80, higher = longer survival); 196 % of control (endpoint: median survival time, dose: 27.0 mg/kg/injection, schedule: Q01DX001 (ip), vehicle: saline with Tween-80, higher = longer survival); 228 % of control and 288 % of control and 219 % of control (endpoint: median survival time, dose: 30.0 mg/kg/injection, schedule: Q01DX001 (ip), vehicle: saline with Tween-80, higher = longer survival).
Consider `O=C1C2C3CCC(O3)C2C(=O)N1c1nccs1` (centres undefined), for which the T/C (endpoint: mean tumor weight, dose: 62.5 mg/kg/injection, schedule: Q01DX011 (ip), vehicle: carboxymethylcellulose (CMC), higher = larger tumour) was 75 % of control and the T/C (endpoint: mean tumor weight, dose: 125.0 mg/kg/injection, schedule: Q01DX011 (ip), vehicle: carboxymethylcellulose (CMC), higher = larger tumour) is 71 % of control.
Regarding `C=C1c2[nH]c3ccccc3c2CN2CCC1/C(=C/C)C2` (centres undefined), the T/C runs as follows: (endpoint: mean tumor weight, dose: 0.5 mg/kg/injection, schedule: Q01DX011 (ip), vehicle: saline, higher = larger tumour) 104 % of control; (endpoint: mean tumor weight, dose: 1.0 mg/kg/injection, schedule: Q01DX011 (ip), vehicle: saline, higher = larger tumour) 74 % of control; (endpoint: mean tumor weight, dose: 2.0 mg/kg/injection, schedule: Q01DX011 (ip), vehicle: saline, higher = larger tumour) 102 % of control.
As for `CC(C)C1C=C2CCC3C(C)(C(=O)O)CCCC3(C)C2CC1` (centres undefined), the T/C (endpoint: mean tumor weight, dose: 100.0 mg/kg/injection, schedule: Q01DX011 (ip), vehicle: carboxymethylcellulose (CMC), higher = larger tumour) was 89 % of control and the T/C (endpoint: mean tumor weight, dose: 200.0 mg/kg/injection, schedule: Q01DX011 (ip), vehicle: carboxymethylcellulose (CMC), higher = larger tumour) was 38 % of control.
Consider `COc1cc2nccc3c4ccccc4n(c1=O)c23`, for which the T/C was 114 % of control under setting [1]; 110 % of control under setting [2]; 120 % of control (endpoint: median survival time, dose: 200.0 mg/kg/injection, schedule: Q01DX009 (ip), vehicle: Klucel (hydroxypropylcellulose) (HPC), higher = longer survival).
Consider `COc1cc([C@@H]2c3cc4c(cc3[C@@H](OC3OC5COC(C)OC5C(O)C3O)[C@H]3COC(=O)[C@H]23)OCO4)cc(OC)c1O` (some centres undefined), for which the T/C reads like this: (endpoint: median survival time, dose: 4.0 mg/kg/injection, schedule: Q01DX009 (ip), vehicle: saline, higher = longer survival) 124 % of control; (endpoint: median survival time, dose: 20.0 mg/kg/injection, schedule: Q04DX003 (ip), vehicle: saline, higher = longer survival) 107 % of control; (endpoint: median survival time, dose: 20.0 mg/kg/injection, schedule: Q04DX003 (sc), vehicle: saline, higher = longer survival) 124 % of control; (endpoint: median survival time, dose: 80.0 mg/kg/injection, schedule: Q04DX003 (ip), vehicle: saline, higher = longer survival) 91 % of control.
Consider `CNC=O`, for which the T/C is 67 % of control and 69 % of control (endpoint: mean tumor weight, dose: 250.0 mg/kg/injection, schedule: Q01DX011 (ip), vehicle: saline, higher = larger tumour); 10 % of control and 12 % of control (endpoint: mean tumor weight, dose: 500.0 mg/kg/injection, schedule: Q01DX011 (ip), vehicle: saline, higher = larger tumour).
Consider `CC1(C)N=C(N)N=C(N)N1c1cccc(CC(=O)Nc2ccc(S(=O)(=O)F)cc2)c1`, for which the T/C under setting [3] was 100 % of control; the T/C under setting [1] was 95 % of control; the T/C under setting [2] is 98 % of control; the T/C (endpoint: median survival time, dose: 150.0 mg/kg/injection, schedule: Q01DX009 (ip), vehicle: Klucel (hydroxypropylcellulose) (HPC), higher = longer survival) is 94 % of control.
Take `C=C1C(=O)OC2C1CCC(C)C1CCC(=O)OC12C` (centres undefined): the T/C (endpoint: median survival time, dose: 1.6 mg/kg/injection, schedule: Q01DX009 (ip), vehicle: Klucel (hydroxypropylcellulose) (HPC), higher = longer survival) is 95 % of control; the T/C under setting [4] is 102 % of control; the T/C (endpoint: median survival time, dose: 3.13 mg/kg/injection, schedule: Q01DX009 (ip), vehicle: Klucel (hydroxypropylcellulose) (HPC), higher = longer survival) is 104 % of control; the T/C under setting [5] was 102 % of control; the T/C under setting [6] is 106 % of control; the T/C under setting [3] was 92 % of control.
As to `COc1cc(C=Nc2ccc(-c3nc(Cc4ccccc4)sc3C)cc2)ccc1N(CCCl)CCCl`, the T/C runs as follows: under setting [6], 90 % of control; under setting [3], 110 % of control.
Regarding `O=NN(CCF)C(=O)NC1CCSc2ccccc21` (centres undefined), the T/C (endpoint: median survival time, dose: 24.0 mg/kg/injection, schedule: Q01DX001 (ip), vehicle: saline with Tween-80, higher = longer survival) was 88 % of control.
`COc1cc2c(cc1NC(=O)N(CCCl)N=O)-c1ccccc1C2`: the T/C (endpoint: median survival time, dose: 118.0 mg/kg/injection, schedule: Q01DX001 (ip), vehicle: saline with Tween-80, higher = longer survival) is 93 % of control; the T/C (endpoint: median survival time, dose: 177.0 mg/kg/injection, schedule: Q01DX001 (ip), vehicle: saline with Tween-80, higher = longer survival) is 114 % of control; the T/C (endpoint: median survival time, dose: 266.0 mg/kg/injection, schedule: Q01DX001 (ip), vehicle: saline with Tween-80, higher = longer survival) is 106 % of control; the T/C (endpoint: median survival time, dose: 400.0 mg/kg/injection, schedule: Q01DX001 (ip), vehicle: saline with Tween-80, higher = longer survival) was 101 % of control; the T/C (endpoint: median survival time, dose: 600.0 mg/kg/injection, schedule: Q01DX001 (ip), vehicle: saline with Tween-80, higher = longer survival) was 90 % of control.
Regarding `CC1CCC2(OC1)OC1C(O)C3C4CCC5CC(OC6OC(CO)C(OC7OC(CO)C(O)C(OC8OCC(O)C(O)C8O)C7OC7OC(CO)C(O)C(OC8OC(CO)C(O)C(O)C8O)C7O)C(O)C6O)C(O)CC5(C)C4CCC3(C)C1C2C` (centres undefined), the T/C is, setting by setting: (endpoint: mean tumor weight, dose: 6.2 mg/kg/injection, schedule: Q01DX011 (ip), vehicle: carboxymethylcellulose (CMC), higher = larger tumour) 47 % of control and 58 % of control; (endpoint: mean tumor weight, dose: 12.5 mg/kg/injection, schedule: Q01DX011 (ip), vehicle: carboxymethylcellulose (CMC), higher = larger tumour) 93 % of control and 98 % of control; (endpoint: median survival time, dose: 1.25 mg/kg/injection, schedule: Q01DX009 (ip), vehicle: saline, higher = longer survival) 115 % of control; (endpoint: median survival time, dose: 2.5 mg/kg/injection, schedule: Q01DX009 (ip), vehicle: saline, higher = longer survival) 122 % of control; (endpoint: median survival time, dose: 5.0 mg/kg/injection, schedule: Q01DX009 (ip), vehicle: saline, higher = longer survival) 111 % of control.
As to `COc1c(Cl)cc2c(c1OC)N(C)C1N3C(=O)C4(C)SSC3(C(=O)N4C)C(O)C21O` (centres undefined), the T/C runs as follows: (endpoint: median survival time, dose: 0.12 mg/kg/injection, schedule: Q01DX009 (ip), vehicle: Klucel (hydroxypropylcellulose) (HPC), higher = longer survival) 96 % of control; (endpoint: median survival time, dose: 0.25 mg/kg/injection, schedule: Q01DX009 (ip), vehicle: Klucel (hydroxypropylcellulose) (HPC), higher = longer survival) 94 % of control; (endpoint: median survival time, dose: 0.5 mg/kg/injection, schedule: Q01DX009 (ip), vehicle: Klucel (hydroxypropylcellulose) (HPC), higher = longer survival) 96 % of control.
As to `C=C[C@@]1(C)C=C2CC[C@@H]3[C@](C)(CCC[C@@]3(C)C(=O)O)[C@H]2CC1`, the T/C was 95 % of control (endpoint: mean tumor weight, dose: 25.0 mg/kg/injection, schedule: Q01DX011 (ip), vehicle: saline, higher = larger tumour); 88 % of control (endpoint: mean tumor weight, dose: 50.0 mg/kg/injection, schedule: Q01DX011 (ip), vehicle: saline, higher = larger tumour); 84 % of control (endpoint: mean tumor weight, dose: 100.0 mg/kg/injection, schedule: Q01DX011 (ip), vehicle: saline, higher = larger tumour); 95 % of control (endpoint: mean tumor weight, dose: 200.0 mg/kg/injection, schedule: Q01DX011 (ip), vehicle: saline, higher = larger tumour).
In the case of `CCO/C=C1\SC(=S)N(c2ccccc2OC)C1=O`, the T/C (endpoint: median survival time, dose: 1.56 mg/kg/injection, schedule: Q01DX009 (ip), vehicle: Klucel (hydroxypropylcellulose) (HPC), higher = longer survival) is 100 % of control; the T/C under setting [4] was 98 % of control; the T/C under setting [5] was 109 % of control; the T/C under setting [6] is 101 % of control.
As to `Nc1ccccc1Br`, the T/C was 114 % of control (endpoint: mean tumor weight, dose: 222.0 mg/kg/injection, schedule: Q01DX011 (ip), vehicle: other, higher = larger tumour) and 102 % of control (endpoint: mean tumor weight, dose: 333.0 mg/kg/injection, schedule: Q01DX011 (ip), vehicle: other, higher = larger tumour).
Regarding `CC(C)=CC1C(C(=O)OCc2ccc(C)cc2C)C1(C)C` (centres undefined), the T/C by setting is: (endpoint: median survival time, dose: 12.5 mg/kg/injection, schedule: Q01DX009 (ip), vehicle: saline with Tween-80, higher = longer survival) 93 % of control; (endpoint: median survival time, dose: 25.0 mg/kg/injection, schedule: Q01DX009 (ip), vehicle: saline with Tween-80, higher = longer survival) 104 % of control; (endpoint: median survival time, dose: 50.0 mg/kg/injection, schedule: Q01DX009 (ip), vehicle: saline with Tween-80, higher = longer survival) 89 % of control; (endpoint: median survival time, dose: 100.0 mg/kg/injection, schedule: Q01DX009 (ip), vehicle: saline with Tween-80, higher = longer survival) 95 % of control; (endpoint: median survival time, dose: 200.0 mg/kg/injection, schedule: Q01DX009 (ip), vehicle: saline with Tween-80, higher = longer survival) 98 % of control.
